This passage reports Ki results from US7943628B2, “Pyrimidine derivatives” (Pfizer Limited, priority 2005, dated 2011).

Test [1] addresses T1, histamine H4 receptor (Homo sapiens, UniProt Q9H3N8).
T1 construct: expressed in transfected cells; host or cells: CHO cells
Nature of the test: H4 binding, method 1 ([3H]-histamine filtration binding on CHO cell membranes). As to conditions: H4 binding, method 1; Ki calculated from IC50 (Cheng-Prussoff). An outline of the steps: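 Membranes from CHO cells expressing human H4 receptor (20-35 μg/well) incubated 90 min at room temperature with 3 nM [3H]-histamine in 50 mM Tris-HCl pH 7.4, ± competitor. Bound label separated by filtration on PEI-soaked GF/B filters and counted by scintillation; non-specific binding with 10 μM JNJ7777120.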

The target in test [2] is T1, histamine H4 receptor. Nature of the test: H4 binding, method 2 ([3H]-histamine binding with Ysi WGA beads on CHO cell membranes). As to conditions: H4 binding, method 2, Ki calculated from IC50 (Cheng-Prussoff). An outline of the steps: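 Membranes from H4-expressing CHO cells were pre-bound to WGA SPA beads, then incubated 90 min at room temperature with 6.5 nM [3H]-histamine in 50 mM Tris-HCl pH 7.4, with or without competitor. Non-specific binding defined with 10 μM JNJ7777120; bound label read by scintillation counting.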

T1 sequence (Q9H3N8 whole entry): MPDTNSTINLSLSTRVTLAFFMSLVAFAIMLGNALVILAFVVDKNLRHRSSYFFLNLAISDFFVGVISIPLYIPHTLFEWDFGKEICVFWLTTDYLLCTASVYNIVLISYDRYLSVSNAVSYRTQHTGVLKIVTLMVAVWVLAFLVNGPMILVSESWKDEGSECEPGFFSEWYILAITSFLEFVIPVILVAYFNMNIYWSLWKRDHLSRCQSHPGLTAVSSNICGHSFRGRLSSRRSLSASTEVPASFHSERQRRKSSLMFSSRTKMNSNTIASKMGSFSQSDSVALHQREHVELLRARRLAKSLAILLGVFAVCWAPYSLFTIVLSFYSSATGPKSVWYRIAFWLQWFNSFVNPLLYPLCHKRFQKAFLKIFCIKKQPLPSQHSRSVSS

For `CN[C@@H]1CCN(c2cc(NCC(C)C)ncn2)C1` [Example 14, N-Isobutyl-6-[(3R)-3-(methyl-amino)pyrrolidin-1-yl]pyrimidin-4-amine], the inhibitory constant (Ki) (usually the dissociation constant of the complex between target and ligand, obtained from inhibition or displacement) in test [1] is 13.6 nM; in test [2] (read-out: Method 2 (Ki (nM))) it was 23.3 nM.
On to `CC(C)CNc1cc(N2CC[C@@H](N(C)C)C2)ncn1` [Example 20, 6-[(3R)-3-(Dimethylamino)pyrrolidin-1-yl]-N-isobutyl-pyrimidin-4-amine], for which the figures for the inhibition constant (Ki) in test [1] and in test [2] (read-out: Method 2 (Ki (nM))) were 30.5 nM and 58.1 nM, respectively.
For the compound `CN(C)[C@@H]1CCN(c2cc(NCC(C)(C)C)ncn2)C1` [Example 22, 6-[(3R)-3-(Dimethylamino)pyrrolidin-1-yl]-N-(2,2-dimethylpropyl)pyrimidin-4-amine], the results for the Ki in test [1] and in test [2] (read-out: Method 2 (Ki (nM))) were 58.9 nM and 59.3 nM, respectively.
With `CNC1CN(c2cc(NCC(C)C)ncn2)C1` [Example 49, N-Isobutyl-6-[3-(methylamino)azetidin-1-yl]pyrimidin-4-amine], the Ki in test [1] is 10.7 nM; in test [2] (read-out: Method 2 (Ki (nM))) it was 29.9 nM.
With `CNC1CN(c2cc(NCCC(C)(C)C)ncn2)C1` [Example 59, N-(3,3-Dimethylbutyl)-6-[3-(methylamino)azetidin-1-yl]pyrimidin-4-amine], the inhibition constant (Ki) in test [1] was 37.7 nM; in test [2] (read-out: Method 2 (Ki (nM))), 59.2 nM.
In the same order, the values of `CNC1CN(c2cc(NC(C)C)nc(N)n2)C1` [Example 60, N^4-Isopropyl-6-(3-methylamino-azetidin-1-yl)-pyrimidine-2,4-diamine] are 3.57 nM and 28.8 nM.
Regarding `CNC1CN(c2cc(NCC(C)(C)C)nc(N)n2)C1` [Example 61, N^4-(2,2-Dimethylpropyl)-6-[3-(methylamino)azetidin-1-yl]pyrimidine-2,4-diamine], the Ki in test [1] was 1.66 nM; in test [2] (read-out: Method 2 (Ki (nM))), 1.33 nM.
Turning to `CNC1CN(c2cc(NCCC(F)(F)F)nc(N)n2)C1` [Example 62, 6-(3-Methylamino-azetidin-1-yl)-N^4-(3,3,3-trifluoro-propyl)-pyrimidine-2,4-diamine], the results for the Ki in test [1] and in test [2] (read-out: Method 2 (Ki (nM))) were 8.94 nM and 14.1 nM, respectively.
`CNC1CN(c2cc(NCC3CC3)nc(N)n2)C1` [Example 63, N^4-Cyclopropylmethyl-6-(3-methylamino-azetidin-1-yl)-pyrimidine-2,4-diamine]: the Ki in test [1] is 1.95 nM; in test [2] (read-out: Method 2 (Ki (nM))) it was 12.2 nM.
In the same order, the values of `CNC1CN(c2cc(NCCC(C)(C)C)nc(N)n2)C1` [Example 64, N^4-(3,3-Dimethyl-butyl)-6-(3-methylamino-azetidin-1-yl)-pyrimidine-2,4-diamine] are 4.63 nM and 4.43 nM.
Taken in the same sequence, the figures for `CNC1CN(c2cc(NCc3cccc(F)c3)nc(N)n2)C1` [Example 65, N^4-(3-Fluoro-benzyl)-6-(3-methylamino-azetidin-1-yl)-pyrimidine-2,4-diamine] were 17.5 nM and 19.8 nM.
Taken in the same sequence, the figures for `CNC1CN(c2cc(NCC3CCC3)nc(N)n2)C1` [Example 67, N^4-Cyclobutylmethyl-6-(3-methylamino-azetidin-1-yl)-pyrimidine-2,4-diamine] were 0.278 nM and 1.6 nM.
Take `CNC1CN(c2cc(NCC3CCCC3)nc(N)n2)C1` [Example 68, N^4-Cyclopentylmethyl-6-(3-methylamino-azetidin-1-yl)-pyrimidine-2,4-diamine]: the Ki in test [1] is 0.979 nM; in test [2] (read-out: Method 2 (Ki (nM))), 6.26 nM.
For `CNC1CN(c2cc(NCC(C)C)nc(N)n2)C1` [Example 71, N^4-Isobutyl-6-[3-(methylamino)azetidin-1-yl]pyrimidine-2,4-diamine], the Ki in test [1] was 1.29 nM; in test [2] (read-out: Method 2 (Ki (nM))) it was 14 nM.
For `CNC1CN(c2cc(NCCC(C)C)nc(N)n2)C1` [Example 74, 6-[3-(Methylamino)azetidin-1-yl]-N^4-(3-methylbutyl)pyrimidine-2,4-diamine], the inhibition constant (Ki) in test [1] is 0.58 nM; in test [2] (read-out: Method 2 (Ki (nM))) it was 16.8 nM.
On to `CN1CCN(c2cc(NCC(C)(C)C)ncn2)CC1` [Example 99, N-(2,2-Dimethylpropyl)-6-(4-methylpiperazin-1-yl)pyrimidin-4-amine], for which the results for the Ki in test [1] and in test [2] (Method 2 (Ki (nM))) were 23.6 nM and 38.1 nM, respectively.
On to `CC(C)(C)CCNc1cc(N2CCNCC2)ncn1` [Example 111, N-(3,3-Dimethylbutyl)-6-piperazin-1-ylpyrimidin-4-amine], for which the Ki in test [1] was 201 nM; in test [2] (read-out: Method 2 (Ki (nM))), 1800 nM.
In the case of `CC(C)Nc1cc(N2CCN(C)CC2)nc(N)n1` [Example 119, N^4-Isopropyl-6-(4-methylpiperazin-1-yl)pyrimidine-2,4-diamine], the Ki in test [1] is 3.44 nM; in test [2] (Method 2 (Ki (nM))), 7.8 nM.
Taken in the same sequence, the figures for `CCNc1cc(N2CCN(C)CC2)nc(N)n1` [Example 120, N^4-Ethyl-6-(4-methylpiperazin-1-yl)pyrimidine-2,4-diamine] were 4.89 nM and 11.2 nM.
Taken in the same sequence, the figures for `CC(C)CNc1cc(N2CCN(C)CC2)nc(N)n1` [Example 121, N^4-Isobutyl-6-(4-methylpiperazin-1-yl)pyrimidine-2,4-diamine] were 2.18 nM and 6.64 nM.
Taken in the same sequence, the figures for `CN1CCN(c2cc(NCC3CC3)nc(N)n2)CC1` [Example 122, N^4-(Cyclopropylmethyl)-6-(4-methylpiperazin-1-yl)pyrimidine-2,4-diamine] were 3.65 nM and 8.65 nM.
For `CCN1CCN(c2cc(NCCC(C)(C)C)ncn2)CC1` [Example 270, N-(3,3-Dimethylbutyl)-6-(4-ethylpiperazin-1-yl)pyrimidin-4-amine], the inhibition constant (Ki) was 839 nM in test [1] and above 16200 nM in test [2] (read-out: Method 2 (Ki (nM))).
Taken in the same sequence, the figures for `CN1CCC(N(C)c2cc(NCCC(C)(C)C)ncn2)CC1` [Example 279, N′-(3,3-Dimethylbutyl)-N-methyl-N-(1-methylpiperidin-4-yl)pyrimidine-4,6-diamine] were 1370 nM and above 9130 nM.
